In DBAASP:
Converted amounts (≈) assume the structure as drawn. Values belong to the molecule of their own block, whether it stands above or below them.

Tests used:
Assay in all cases: ≥ marks a high value that may be exact or a test limit, other limits are often not marked, values filed in µg/mL are converted to µM
[1] = system: Candida albicans ATCC 24433
[2] = system: Escherichia coli ATCC 25922
[3] = system: Staphylococcus epidermidis ATCC 12228
[4] = system: Candida albicans NCYC 1467
[5] = system: Enterococcus faecalis NCTC 12697
[6] = system: Escherichia coli NCTC 10418
[7] = system: Klebsiella pneumoniae ATCC 43816
[8] = system: Pseudomonas aeruginosa ATCC 27853
[9] = system: Staphylococcus aureus NCTC 10788
[10] = system: Staphylococcus aureus NCTC 12493
[11] = system: Listeria monocytogenes EGD
[12] = system: Staphylococcus aureus ATCC 25923
[13] = system: Candida albicans ATCC 90028
[14] = system: Trichophyton rubrum ATCC 28189
[15] = system: Acinetobacter baumannii 7226/16
[16] = system: Escherichia coli ESBL 521/17
Escherichia coli ML-35p = system: Escherichia coli ML-35p
[17] = system: Klebsiella pneumoniae ESBL 344/17
[18] = system: Pseudomonas aeruginosa 522/17
[19] = system: Staphylococcus aureus 1399/17
[20] = system: Staphylococcus aureus ATCC 33591
[21] = system: Staphylococcus aureus SG511
[22] = system: Candida parapsilosis ATCC 22019
Escherichia coli = system: Escherichia coli
Staphylococcus aureus = system: Staphylococcus aureus
[23] = system: Bacillus subtilis CMCC 63501
[24] = system: Enterococcus faecalis ATCC 29212
Escherichia coli UB1005 = system: Escherichia coli UB1005
[25] = system: Salmonella enterica subsp. enterica serovar Pullorum C79-13
[26] = system: Salmonella enterica subsp. enterica serovar Typhimurium ATCC 14028
[27] = system: Staphylococcus aureus ATCC 29213

Structure (SMILES): CC(C)C[C@H](NC(=O)CNC(=O)CNC(=O)CNC(=O)[C@H](C)NC(=O)[C@H](CC(C)C)NC(=O)[C@H](CC(N)=O)NC(=O)CNC(=O)[C@H](CC(C)C)NC(=O)[C@H](CC(C)C)NC(=O)CNC(=O)[C@@H](NC(=O)[C@@H](NC(=O)[C@H](CO)NC(=O)[C@H](CC(N)=O)NC(=O)[C@H](CC(C)C)NC(=O)[C@H](CC(C)C)NC(=O)CNC(=O)[C@H](CO)NC(=O)[C@@H](NC(=O)[C@H](CC(C)C)NC(=O)CN)C(C)C)C(C)C)[C@@H](C)O)C(=O)O [GLVSGLLNSVTGLLGNLAGGGL]
- MIC [1]: ≥ 100 µM
- MIC [2]: > 100 µM
- MIC [3]: > 100 µM

Structure (SMILES): CC[C@H](C)[C@@H]1NC(=O)[C@H](C)NC(=O)[C@@H](NC(=O)[C@H](Cc2ccccc2)NC(=O)[C@@H](NC(=O)[C@H](CCCCN)NC(=O)[C@@H]2CCCN2C(=O)[C@H](CC(C)C)NC(=O)[C@H](Cc2ccccc2)NC(=O)[C@@H](N)CCCCN)[C@@H](C)CC)CSSC[C@@H](C(=O)O)NC(=O)[C@H](CCCCN)NC(=O)[C@H](CCCCN)NC(=O)[C@H]([C@@H](C)O)NC1=O [KFLPKIFCAITKKC]
- MIC [4]: ≥ 128 µM
- MIC [5]: ≥ 512 µM
- MIC [6]: ≥ 32 µM
- MIC [7]: ≥ 256 µM
- MIC [8]: 512 µM (≈ 839 µg/mL)
- MIC [9]: 8 µM (≈ 13.1 µg/mL)
- MIC [10]: 16 µM (≈ 26.2 µg/mL)

Structure (SMILES): CC[C@H](C)[C@@H]1NC(=O)[C@H](C)NC(=O)[C@@H](NC(=O)[C@H](Cc2ccccc2)NC(=O)[C@@H](NC(=O)[C@H](CCCCN)NC(=O)[C@H](Cc2c[nH]c3ccccc23)NC(=O)[C@@H]2CCCN2C(=O)[C@H](CC(C)C)NC(=O)[C@H](Cc2ccccc2)NC(=O)[C@@H](N)CCCCN)[C@@H](C)CC)CSSC[C@@H](C(=O)O)NC(=O)[C@H](CCCCN)NC(=O)[C@H](CCCCN)NC(=O)[C@H]([C@@H](C)O)NC1=O [KFLPWKIFCAITKKC]
- MIC [4]: 16 µM (≈ 29.2 µg/mL)
- MIC [5]: ≥ 256 µM
- MIC [6]: 16 µM (≈ 29.2 µg/mL)
- MIC [7]: ≥ 64 µM
- MIC [8]: 128 µM (≈ 234 µg/mL)
- MIC [9]: 8 µM (≈ 14.6 µg/mL)
- MIC [10]: 8 µM (≈ 14.6 µg/mL)

Structure (SMILES): CC[C@H](C)[C@H](NC(=O)[C@H](C)NC(=O)[C@@H](NC(=O)[C@@H](NC(=O)[C@@H](NC(=O)CNC(=O)[C@H](CCCCN)NC(=O)[C@H](CCCCN)NC(=O)CNC(=O)[C@@H](N)CCCCN)C(C)C)[C@@H](C)CC)[C@@H](C)CC)C(=O)N[C@@H](CC(C)C)C(=O)N[C@@H](CC(C)C)C(=O)N[C@@H](Cc1ccccc1)C(=O)N[C@@H](C)C(=O)N[C@H](C(=O)N[C@H](C(=O)N[C@@H](Cc1ccc(O)cc1)C(=O)N[C@@H](CCCCN)C(=O)N[C@@H](CCCCN)C(=O)N[C@@H](CCCCN)C(N)=O)[C@@H](C)CC)[C@@H](C)CC [KGKKGVIIAILLFAIIYKKK]
- MIC [2]: 128 µM (≈ 287 µg/mL)
- MIC [11]: ≥ 128 µM
- MIC [8]: 128 µM (≈ 287 µg/mL)
- MIC [12]: 128 µM (≈ 287 µg/mL)

Structure (SMILES): CC[C@H](C)[C@H](NC(=O)[C@H](C)NC(=O)[C@H](CCCCN)NC(=O)[C@@H](NC(=O)[C@H](CC(C)C)NC(=O)[C@H](C)NC(=O)CNC(=O)[C@@H](NC(=O)[C@H](CCCCN)NC(=O)[C@H](Cc1ccccc1)NC(=O)[C@H](Cc1ccc(O)cc1)NC(=O)[C@H](CCCCN)NC(=O)[C@H](CCCCN)NC(=O)[C@H](CC(C)C)NC(=O)[C@@H](NC(=O)CNC(=O)[C@@H](NC(=O)[C@@H](N)CCCCN)[C@@H](C)CC)C(C)C)[C@@H](C)CC)[C@@H](C)CC)C(=O)N[C@H](C(=O)N[C@@H](CCCCN)C(N)=O)[C@@H](C)CC [KIGVLKKYFKIGALIKAIIK]
- MIC [2]: 8 µM (≈ 18 µg/mL)
- MIC [11]: 1 µM (≈ 2.24 µg/mL)
- MIC [8]: 2 µM (≈ 4.49 µg/mL)
- MIC [12]: 8 µM (≈ 18 µg/mL)

Structure (SMILES): CC[C@H](C)[C@H](NC(=O)[C@H](Cc1ccc(O)cc1)NC(=O)[C@H](CC(N)=O)NC(=O)[C@H](CC(N)=O)NC(=O)[C@H](Cc1ccccc1)NC(=O)[C@@H](N)CC(C)C)C(=O)N[C@H](C(=O)N[C@@H](C)C(=O)N[C@@H](C)C(=O)N[C@@H](CC(C)C)C(=O)N[C@@H](CCCCN)C(=O)N[C@@H](CC(C)C)C(=O)N[C@@H](CC(C)C)C(=O)N[C@@H](CCC(=O)O)C(=O)N[C@@H](CCCCN)C(=O)N[C@@H](CC(C)C)C(=O)N[C@@H](Cc1ccc(O)cc1)C(=O)N[C@@H](CCCCN)C(=O)N[C@H](C(N)=O)C(C)C)[C@@H](C)O [LFNNYITAALKLLEKLYKV]
- MIC [13]: 8 µM (≈ 18 µg/mL)
- MIC [12]: 4 µM (≈ 9.02 µg/mL)
- MIC [3]: 5.33 µM (≈ 12 µg/mL)
- MIC [14]: ≥ 32 µM

Continued, values first:

- MIC [15]: 4 µM (≈ 14.1 µg/mL)
- MIC [16]: 5.66 µM (≈ 19.9 µg/mL)
- MIC (Escherichia coli ML-35p): 2.83 µM (≈ 9.95 µg/mL)
- MIC [17]: 8 µM (≈ 28.1 µg/mL)
- MIC [18]: 16 µM (≈ 56.3 µg/mL)
- MIC [19]: 8 µM (≈ 28.1 µg/mL)
- MIC [20]: 16 µM (≈ 56.3 µg/mL)
- MIC [21]: 0.25 µM (≈ 0.879 µg/mL)
Structure (SMILES): CC[C@H](C)[C@H](NC(=O)[C@H](CCCN=C(N)N)NC(=O)[C@@H](NC(=O)[C@H](Cc1ccccc1)NC(=O)[C@@H]1CCCN1C(=O)[C@@H]1CCCN1C(=O)[C@@H]1CCCN1C(=O)[C@H](Cc1cnc[nH]1)NC(=O)[C@@H](NC(=O)[C@H](CCCN=C(N)N)NC(=O)[C@H](CCCN=C(N)N)NC(=O)[C@H](Cc1ccccc1)NC(=O)[C@@H]1CCCN1C(=O)[C@H](CC(C)C)NC(=O)[C@H](CCCN=C(N)N)NC(=O)[C@H](Cc1ccccc1)NC(=O)[C@@H](N)CCCN=C(N)N)[C@@H](C)CC)C(C)C)C(=O)N[C@@H](Cc1cnc[nH]1)C(=O)N1CCC[C@H]1C(=O)N1CCC[C@H]1C(=O)N1CCC[C@H]1C(=O)N[C@@H](Cc1ccccc1)C(=O)N[C@@H](Cc1ccc(O)cc1)C(=O)N[C@@H](CCCN=C(N)N)C(=O)N[C@@H](CCCN=C(N)N)C(=O)N[C@@H](Cc1ccccc1)C(=O)N[C@@H](CC(C)C)C(=O)O [RFRLPFRRIHPPPFVRIHPPPFYRRFL]

- MIC [1]: ≥ 272 µM
- MIC [22]: ≥ 272 µM
- MIC (Escherichia coli): > 272 µM
- MIC (Staphylococcus aureus): > 272 µM
- MIC [14]: ≥ 272 µM
Structure (SMILES): CC[C@H](C)[C@H](NC(=O)[C@H](CC(C)C)NC(=O)[C@H](CC(=O)O)NC(=O)[C@H](CO)NC(=O)[C@H](CCCN=C(N)N)NC(=O)[C@@H](N)CO)C(=O)N[C@H](C(=O)N[C@@H](Cc1cnc[nH]1)C(=O)N[C@@H](CCC(N)=O)C(=O)N[C@@H](CCCN=C(N)N)C(=O)N[C@@H](CC(C)C)C(=O)N[C@@H](Cc1ccccc1)C(N)=O)C(C)C [SRSDLIVHQRLF]

- MIC [1]: ≥ 267 µM
- MIC [22]: ≥ 267 µM
- MIC (Escherichia coli): > 267 µM
- MIC (Staphylococcus aureus): > 267 µM
- MIC [14]: ≥ 267 µM
Structure (SMILES): CC[C@H](C)[C@H](NC(=O)[C@H](CCCCN)NC(=O)[C@H](CCC(=O)O)NC(=O)[C@H](CO)NC(=O)[C@H](CCCN=C(N)N)NC(=O)[C@@H](N)CO)C(=O)N[C@H](C(=O)N[C@@H](Cc1cnc[nH]1)C(=O)N[C@@H](CCC(N)=O)C(=O)N[C@@H](CCCN=C(N)N)C(=O)N[C@@H](CC(C)C)C(=O)N[C@@H](Cc1ccccc1)C(N)=O)C(C)C [SRSEKIVHQRLF]

- MIC [23]: 8 µM (≈ 11.4 µg/mL)
- MIC [24]: 32 µM (≈ 45.7 µg/mL)
- MIC [2]: 8 µM (≈ 11.4 µg/mL)
- MIC (Escherichia coli UB1005): 8 µM (≈ 11.4 µg/mL)
- MIC [8]: 32 µM (≈ 45.7 µg/mL)
- MIC [25]: 8 µM (≈ 11.4 µg/mL)
- MIC [26]: 32 µM (≈ 45.7 µg/mL)
- MIC [27]: 32 µM (≈ 45.7 µg/mL)
- MIC [3]: 32 µM (≈ 45.7 µg/mL)
Structure (SMILES): CC[C@H](C)[C@H](NC(=O)[C@H](CCCCN)NC(=O)[C@H](C)NC(=O)[C@H](C)NC(=O)[C@H](C)NC(=O)[C@H](CCCCN)NC(=O)[C@H](C)NC(=O)[C@H](C)NC(=O)[C@H](C)NC(=O)[C@H](CCCCN)NC(=O)[C@@H](NC(=O)[C@@H](N)Cc1c[nH]c2ccccc12)[C@@H](C)CC)C(=O)N[C@@H](Cc1c[nH]c2ccccc12)C(N)=O [WIKAAAKAAAKIW]
